Experimental findings from ChEMBL document CHEMBL4811226, “Species Prioritization Based on Spectral Dissimilarity: A Case Study of Polyporoid Fungal Species” (J Nat Prod, 2021) are described below.

In this assay the test system is HCT-116. The assay can be described thus: Cytotoxicity against human HCT-116 cells assessed as reduction in cell viability measured after 48 hrs by MTS assay. The class given is functional, cell-based. Conditions: for IC50: HCT-116, 48 h. In general terms: Formazan colour is commonly taken as a measure of viable cells.

The structures appear in SMILES notation. Calls of active or inactive are those of the source. No cut-off for these calls is given here.

Consider `C=C1CC[C@H]2[C@@]3(C)CCC[C@]2(C)[C@H]1CO[C@@H](C(=O)OC)[C@H](CC(=O)O)C(=O)OC[C@]1(C)CCC[C@]2(C)[C@@H](CO[C@@H](C(=O)OC)[C@H](CC(=O)OC)C(=O)OC3)C(=C)CC[C@@H]12`, for which the outcome was inactive.

Regarding `C=C1CC[C@H]2[C@](C)(COC(=O)[C@@H](CC(=O)O)[C@@H](OC[C@H]3C(=C)CC[C@H]4[C@](C)(CO)CCC[C@]34C)C(=O)OC)CCC[C@]2(C)[C@H]1CO[C@@H](C(=O)OC)[C@H](CC(=O)O)C(=O)OC`, the result was inactive.

For `C=C1CC[C@H]2[C@](C)(COC(=O)[C@@H](CC(=O)O)[C@@H](OC[C@H]3C(=C)CC[C@H]4[C@](C)(CO)CCC[C@]34C)C(=O)OC)CCC[C@]2(C)[C@H]1CO[C@@H](C(=O)OC)[C@H](CC(=O)O)C(=O)OC(C)C`, the outcome was inactive.

On to `C=C1CC[C@H]2[C@](C)(COC(=O)[C@@H](CC(=O)OC)[C@@H](OC[C@H]3C(=C)CC[C@H]4[C@](C)(CO)CCC[C@]34C)C(=O)OC)CCC[C@]2(C)[C@H]1CO[C@@H](C(=O)OC)[C@H](CC(=O)O)C(=O)OC`, for which the IC50 (usually the concentration at which inhibition is half-maximal) worked out at 3.6 µM.

Regarding `C=C1CC[C@H]2[C@](C)(COC(=O)[C@@H](CC(=O)OC)[C@@H](OC[C@H]3C(=C)CC[C@H]4[C@](C)(CO)CCC[C@]34C)C(=O)OC)CCC[C@]2(C)[C@H]1CO[C@@H](C(=O)OC)[C@H](CC(=O)OC)C(=O)OC`, the result was inactive.

`C=C1CC[C@H]2[C@](C)(COC(=O)[C@@H](CC(=O)O)[C@@H](OC[C@H]3C(=C)CC[C@H]4[C@](C)(COC(=O)[C@@H](CC(=O)O)[C@@H](OC[C@H]5C(=C)CC[C@H]6[C@](C)(CO)CCC[C@]56C)C(=O)OC)CCC[C@]34C)C(=O)OC)CCC[C@]2(C)[C@H]1CO[C@@H](C(=O)OC)[C@H](CC(=O)OC)C(=O)O`: the outcome was inactive.

As to `C=C1CC[C@H]2[C@@]3(C)CCC[C@]2(C)[C@H]1CO[C@@H](C(=O)OC)[C@H](CC(=O)O)C(=O)OC[C@]1(C)CCC[C@]2(C)[C@@H](CO[C@@H](C(=O)OC)[C@H](CC(=O)O)C(=O)OC3)C(=C)CC[C@@H]12`, the outcome was inactive.

Consider `C=C1CC[C@H]2C(C)(C)CCC[C@]2(C)[C@H]1CO[C@@H](C(=O)OC)[C@H](CC(=O)OC)C(=O)OC`, for which the outcome was inactive.

As for `C=C1CC[C@H]2[C@](C)(COC(=O)[C@@H](CC(=O)O)[C@@H](OC[C@H]3C(=C)CC[C@H]4[C@](C)(CO)CCC[C@]34C)C(=O)OC)CCC[C@]2(C)[C@H]1CO[C@@H](C(=O)OC)[C@H](CC(=O)OC)C(=O)OC`, the IC50 is 4.3 µM.
